# In patent KR20230169706A, “베타-카리오필렌을 포함하는 존속성 세균 억제용 조성물” (국민대학교산학협력단, priority 2022, dated 2023):
# “Also recorded” adds a separate entry of the source.
# Tested on: persister cells of Staphylococcus aureus ATCC 6538 [황색포도상구균(Staphylococcus aureus ATCC 6538), 존속성 세균(persister cell)]
# Test: Persister cell inhibition by beta-caryophyllene co-treated with antibiotics at 10x MIC (CFU count)
# Format: cell-based
compound,measurement,setting,value
"C=C1CC/C=C(\C)CC[C@@H]2[C@@H]1CC2(C)C [베타-카리오필렌, β-caryophyllene]",amount of persister cells,"beta-caryophyllene 1 mM or more, each antibiotic (oxacillin, tobramycin, ciprofloxacin) at 10x MIC, 24 h",상당량 감소
same,inhibition of persister cells,"beta-caryophyllene 2 mM or more, all antibiotics (oxacillin, tobramycin, ciprofloxacin) at 10x MIC, 24 h, about 80% or more",≥ 80%
same,amount of persister cells,beta-caryophyllene 1 to 10 mM,크게 저하
same,inhibitory effect on persister cells,"beta-caryophyllene 2 to 10 mM, various antibiotics",≥ 80%
same,amount of persister cells,"beta-caryophyllene together with antibiotic at 10x MIC, 24 h, no beta-caryophyllene concentration stated",존속성 세균의 양이 감소
same,inhibition of persister cells,"ciprofloxacin, weight ratio beta-caryophyllene:antibiotic about 10:1 to 100:1",≥ 80%
same,inhibition of persister cells,"oxacillin, weight ratio beta-caryophyllene:antibiotic about 100:1 to 800:1",≥ 80%
same,inhibition of persister cells (in words),"persister cells not killed by oxacillin, tobramycin or ciprofloxacin, no beta-caryophyllene concentration stated",상당량 억제; also recorded: 효과적으로 억제; also recorded: 우수한 억제 활성
same,inhibition of persister cells,"tobramycin, weight ratio beta-caryophyllene:antibiotic about 5:1 to 30:1",≥ 80%
